# Laboratory results from patent US11389449B2, “Treatment of metabolic syndrome with an sGC stimulator” (Cyclerion Therapeutics, Inc., priority 2017, dated 2022).
# Tested on: ZSF1 obese rats
# Assay: Oral glucose tolerance test (OGTT) and fasting glucose in ZSF1 rats at week 10
# Assay type: in vivo, rat
# Method: Male ZSF1 rats (body weight 400-430 grams (lean control) and 500-605 grams (obese) at baseline) were used for this study. All animals were housed in a room under controlled conditions of temperature (72±8° F.), relative humidity of 30-70% and a 12-hour light-dark cycle (lights on at 6:00 AM and off at 6:00 PM) at a fully AAALAC accredited, USDA registered and OLAW assured laboratory animal research facility. All animals were allowed free access to rodent chow (Purina 5008+/−test articles) and water (+/−enalapril).
# Blood and 24-hour urine samples were obtained from all animals at day 0 (15 weeks of age; prior to the initiation of enalapril treatment). Animals in Groups 3, 7, 8 and 9 were placed on drinking water containing enalapril and kept on Purina 5008 rodent chow (C13000). Animals in Group 1, 2, 4, 5 and 6 were kept on Purina 5008 rodent chow and drinking water. Ten days after the initiation of enalapril treatment, blood and 24-hour urine samples were collected from all animals. After day 10 blood and urine collections, animals in Groups 4, 5 and 6 received Compound I at 1, 3 and 10 mg/kg/day, respectively for 11 weeks. In addition to enalapril treatment, animals in Groups 7, 8 and 9 received Compound I at 1, 3 and 10 mg/kg/day, respectively for an additional 11 weeks.
# 10 weeks after the initiation of Compound I treatment, animals (27 weeks of age) were fasted for 18 hours. Serum samples were collected for the measurement of fasting insulin levels. Serum insulin levels were determined using the Rat Insulin ELISA kit (Cat #ELR-Insulin, RayBiotech, Inc.)
# For OGTT, animals were given glucose solution (50% Dextrose) at 2 g/kg via oral gavage. Blood samples were collected prior to oral glucose administration (0 minute) and 30, 60, 90, 120 and 180 minutes after administration. Blood glucose levels were measured using a standard blood glucose monitoring system (AlphaTRAK). The blood glucose reading at time 0 (prior to glucose administration) corresponds to the fasting glucose measurement.
# The data are expressed as mean±SEM. […] One-tailed tests were used for comparison of variables. Statistical significance is indicated by P values less than 0.05.
structure (smiles),measurement,setting,value
OC(CNc1nc(-c2cc(-c3ccon3)n(Cc3ccccc3F)n2)ncc1F)(C(F)(F)F)C(F)(F)F [Compound I],Fasting Blood Glucose (0 minute),Compound I 1 mpk,267 ± 38 mg/dL
same,OGTT Area Under Curve (AUC),Compound I 1 mpk,84945 ± 5344
same,OGTT Blood Glucose 120 minutes,Compound I 1 mpk,475 ± 33 mg/dL
same,OGTT Blood Glucose 180 minutes,Compound I 1 mpk,398 ± 30 mg/dL
same,Fasting Blood Glucose (0 minute),Compound I 3 mpk,202 ± 10 mg/dL
same,OGTT Area Under Curve (AUC),Compound I 3 mpk,77402 ± 3526
same,OGTT Blood Glucose 120 minutes,Compound I 3 mpk,424 ± 19 mg/dL
same,OGTT Blood Glucose 180 minutes,Compound I 3 mpk,355 ± 24 mg/dL
same,Fasting Blood Glucose (0 minute),Compound I 10 mpk,194 ± 9 mg/dL
same,OGTT Area Under Curve (AUC),Compound I 10 mpk,77090 ± 1817
same,OGTT Blood Glucose 120 minutes,Compound I 10 mpk,421 ± 11 mg/dL
same,OGTT Blood Glucose 180 minutes,Compound I 10 mpk,385 ± 14 mg/dL
